# From patent US9850256B2, “Antibacterial basic biaromatic derivatives with aminoalkoxy substitution” (priority 2014, dated 2017)
# Columns and labels:
# Assay in all cases: Bacterial growth minimal inhibitory concentration (microdilution, cation-adjusted Mueller-Hinton Broth)
# [1] = system: S. aureus A798; format: cell-based, Staphylococcus aureus; conditions: Staphylococcus aureus, A798; multiply-resistant strain (methicillin- and quinolone-resistant)
# Protocol: (§1) Minimal Inhibitory Concentrations (MICs; mg/L) were determined in cation-adjusted Mueller-Hinton Broth by a microdilution method following the description given in “Methods for Dilution Antimicrobial Susceptibility Tests for Bacteria that Grow Aerobically”, Approved standard, 7th ed., Clinical and Laboratory Standards Institute (CLSI) Document M7-A7, Wayne, Pa., USA (2006).
# (§2) All Example compounds were tested against several Gram positive and Gram negative bacteria. […] Staphylococcus aureus A798 is a multiply-resistant strain (methicillin- and quinolone-resistant), Klebsiella pneumoniae T6474 is a multiply-resistant strain (penicillin-, cephalosporin- and in particular quinolone-resistant), while E. coli ATCC25922 and Pseudomonas aeruginosa ATCC 27853 are quinolone-sensitive strains.
# [2] = system: K. pneumoniae T6474; format: cell-based, Klebsiella pneumoniae; conditions: Klebsiella pneumoniae, T6474; multiply-resistant strain (penicillin-, cephalosporin- and quinolone-resistant)
# Protocol: as §1, §2
# [3] = system: P. aeruginosa ATCC 27853; format: cell-based, Pseudomonas aeruginosa; conditions: Pseudomonas aeruginosa, ATCC27853; quinolone-sensitive strain
# Protocol: as §1, §2
# [4] = system: E. coli ATCC25922; format: cell-based; conditions: Escherichia coli, ATCC25922; quinolone-sensitive strain
# Protocol: as §1, §2
Compound,MIC [1] [µg/mL],MIC [2] [µg/mL],MIC [3] [µg/mL],MIC [4] [µg/mL]
"NCCCOc1cccc(-c2cccc(CNCC[C@H]3CN(c4ccc5c(n4)NC(=O)CO5)C(=O)O3)c2)c1 [Example 3, 6-[(S)-5-(2-{[3′-(3-amino-propoxy)-biphenyl-3-ylmethyl]-amino}-ethyl)-2-oxo-oxazolidin-3-yl]-4H-pyrido[3,2-b][1,4]oxazin-3-one]",2,2,2,1
"NCCCCOc1cccc(-c2cccc(CNCC[C@H]3CN(c4ccc5c(n4)NC(=O)CO5)C(=O)O3)c2)c1 [Example 5, 6-[(S)-5-(2-{[3′-(4-amino-butoxy)-biphenyl-3-ylmethyl]-amino}-ethyl)-2-oxo-oxazolidin-3-yl]-4H-pyrido[3,2-b][1,4]oxazin-3-one]",2,4,4,4
"O=C1COc2ccc(N3C[C@H](CCNCc4cccc(-c5cccc(OCCN6CCCC6)n5)c4)OC3=O)nc2N1 [Example 9, 6-[(S)-2-oxo-5-(2-{3-[6-(2-pyrrolidin-1-yl-ethoxy)-pyridin-2-yl]-benzylamino}-ethyl)-oxazolidin-3-yl]-4H-pyrido[3,2-b][1,4]oxazin-3-one]",0.125,1,2,2
"CN(C)CCOc1cnnc(-c2cccc(CNCC[C@H]3CN(c4ccc5c(n4)NC(=O)CO5)C(=O)O3)c2)c1 [Example 10, 6-[(S)-5-(2-{3-[5-(2-dimethylamino-ethoxy)-pyridazin-3-yl]-benzylamino}-ethyl)-2-oxo-oxazolidin-3-yl]-4H-pyrido[3,2-b][1,4]oxazin-3-one]",8,4,4,2

# Further lines, results first:
MIC [1] [µg/mL],MIC [2] [µg/mL],MIC [3] [µg/mL],MIC [4] [µg/mL],Compound
2,2,2,1,"CNCCOc1cccc(-c2cccc(CNCC[C@H]3CN(c4ccc5c(n4)NC(=O)CO5)C(=O)O3)c2)c1 [Example 4, 6-[(S)-5-(2-{[3′-(2-methylamino-ethoxy)-biphenyl-3-ylmethyl]-amino}-ethyl)-2-oxo-oxazolidin-3-yl]-4H-pyrido[3,2-b][1,4]oxazin-3-one]"
0.25,1,0.25,0.5,"NCCOc1cccc(-c2cccc(CNCC[C@H]3CN(c4ccc5c(n4)NC(=O)CO5)C(=O)O3)c2)n1 [Example 8, 6-[(S)-5-(2-{3-[6-(2-amino-ethoxy)-pyridin-2-yl]-benzylamino}-ethyl)-2-oxo-oxazolidin-3-yl]-4H-pyrido[3,2-b][1,4]oxazin-3-one]"
2,4,1,2,"NCCOc1cncc(-c2cccc(CNCC[C@H]3CN(c4ccc5c(n4)NC(=O)CO5)C(=O)O3)c2)c1 [Example 11, 6-[(S)-5-(2-{3-[5-(2-amino-ethoxy)-pyridin-3-yl]-benzylamino}-ethyl)-2-oxo-oxazolidin-3-yl]-4H-pyrido[3,2-b][1,4]oxazin-3-one]"
0.063,2,2,1,"O=C1COc2ccc(N3C[C@H](CCNCc4cccc(-c5cccc(OCCN6CCCCC6)n5)c4)OC3=O)nc2N1 [Example 12, 6-[(S)-2-oxo-5-(2-{3-[6-(2-piperidin-1-yl-ethoxy)-pyridin-2-yl]-benzylamino}-ethyl)-oxazolidin-3-yl]-4H-pyrido[3,2-b][1,4]oxazin-3-one]"
0.5,2,8,2,"O=C1COc2ccc(N3C[C@H](CCNCc4cccc(-c5cccc(OCCN6CCCCC6)c5)c4)OC3=O)nc2N1 [Example 13, 6-[(S)-2-oxo-5-(2-{[3′-(2-piperidin-1-yl-ethoxy)-biphenyl-3-ylmethyl]-amino}-ethyl)-oxazolidin-3-yl]-4H-pyrido[3,2-b][1,4]oxazin-3-one]"
